Test results taken from PMC3909264, “A Novel Acylaminoimidazole Derivative, WN1316, Alleviates Disease Progression via Suppression of Glial Inflammation in ALS Mouse Model” (PLoS ONE, 2014).
Structures can show the parent of a compound that is named as a salt.

Experiments:
[1] = system: HeLa cells; assay: Detection of intracellular ROS, •OH and 4-HNE after oxidative insult; type: cell-based, human; conditions: 10 µM, 8 h, then menadione or FeSO4/H2O2 1 h
Protocol: HeLa cells (ATCC, CCL-2) cultured on poly-L-lysine-coated coverslips were treated with WN1316 (10 µM) or vehicle (DMSO) for 8 h and incubated with 10 µM H2DCF-DA for 30 min. Cells were then exposed to 60 µM menadione for 1 h. Confocal fluorescence images were obtained using Zeiss LSM 700 confocal microscope.
To detect the hydroxyl radical (•OH), we used hydroxyphenyl fluorescein (HPF) as a specific probe. In brief, HeLa cells were treated with WN1316 (10 µM) or vehicle (DMSO) for 8 h and then incubated with 100 µM HPF for 30 min at 37°C in Hanks’s buffer (Invitrogen). After washing with phosphate-buffered saline (PBS), the reaction buffer (0.1 mM FeSO4, 0.2 mM H2O2) was added, and cells were incubated for 1 h at 37°C to generate •OH. Confocal fluorescence images were obtained using the lambda mode of Zeiss LSM 510 Meta confocal microscope and analytical software.
HeLa cells cultured on poly-L-lysine-coated coverslips were treated with 10 µM WN1316 or DMSO for 8 h, and then incubated in fresh medium containing 60 µM menadione for 1 h. Cells were fixed in 0.1% glutaraldehyde/4% paraformaldehyde/PBS for 10 min, rinsed three times with PBS, and permeabilized with 0.1% Triton-X-100 for 15 min. […]

[2] = system: differentiated SH-SY5Y cells; assay: Anti-oxidative stress-induced neuronal cell death (AOND) analysis, AlamarBlue cell viability; type: cell-based, human
Protocol: Human neuroblastoma SH-SY5Y cells (ATCC, CRL-2266) were grown in Dulbecco’s modified Eagle’s medium (DMEM) supplemented with 10% fetal bovine serum (HyClone, Thermo Fisher Scientific Inc.), 100 U/ml penicillin, and 100 µg/ml streptomycin at 37°C in 5% CO2. For differentiation, SH-SY5Y cells were seeded at a density of 0.75×10^4 cells per well in 96-well plates (Primaria, BD Falcon) for 1 day, and cultured in the medium containing 10 µM all-trans retinoic acid for additional 5 days.
[…] Then, the cells were exposed to various concentrations of cytotoxins, including oxidative stressors [menadione, 10 to 80 µM for 4 to 6 h; α-naphthoquinone, 12.5 µM for 4 h; 6-hydroxydopamine (6-OHDA), 400 µM for 4 h], protein kinase inhibitor (staurosporine, 25 µM for 6 h) and phosphatase inhibitor (okadaic acid, 1 µM for 6 h), in fresh medium. Cell viability was measured by AlamarBlue assay (Invitrogen) as described previously.

[3] = system: HO-1 mRNA; assay: qRT-PCR of HO-1 mRNA in lumbar spinal cord of wild type mice; type: in vivo, mouse (C57BL/6N); conditions: 100 µg/kg oral, 3 h post-administration
Protocol: Wild type mice at 8 weeks of age (male, C57BL/6N) were administered per os with either vehicle (physiological saline) or WN1316 (100 µg/kg body weight). After 1 h, 3 h, 6 h and 9 h, mice were transcardially perfused with physiological saline containing 10% heparin under anesthesia with 2% isoflurane by inhalation, and the lumbar spinal cord was dissected. Total RNA was extracted from lumbar spinal cord using Sepasol-RNA I Super G (Nacalai Tesque), and purified by SV Total RNA Isolation System (Promega) according to manufacturer's instructions. qRT-PCR was performed with QuantiFast™ SYBR Green RT-PCR Kit (QIAGEN) on CFX96 (BIO RAD). The PCR primers (QuantiTect Primer Assays) for HO-1 (Mm_Hmox1_1_SG) and PPIA (Mm_Ppia_1_SG) were purchased from QIAGEN. The levels of all transcripts were normalized for the PPIA mRNA level in each sample. Relative expression was calculated using the ΔΔCt method (Livak 2001).

Cc1cc(C)c(N(C)CC(=O)Nc2nc(-c3ccccn3)c[nH]2)c(C)c1 [WN1316, 2-[mesityl(methyl)amino]-N-[4-(pyridin-2-yl)-1H-imidazol-2-yl] acetamide trihydrochloride]
level of intracellular •OH and lipid peroxidation [1]: markedly reduced their levels
pre-treatment time required for AOND activity ([2]; 6 µM WN1316, then 60 µM menadione 4 h): > 8 h
concentration that militates against cytoprotection ([2]; 8 h treatment, then 60 µM menadione 4 h): > 20 µM
cytoprotection against oxidative stress-induced cell death ([2]; compound 24 h, then 60 µM menadione 4 h, compared with mother compound CPN-9): marked cytoprotection
selectivity of protection against various cytotoxins ([2]; menadione, α-naphthoquinone, 6-OHDA vs staurosporine, okadaic acid, 8 h pretreatment): greatest protection against oxidative stress-induced damage
HO-1 mRNA in the lumbar spinal cord [3]: transient induction
